Results as given in ChEMBL document CHEMBL3046281, “Nitrogen Analogues of Aldrin as Noncompetitive Antagonists of GABAA Receptor” (J Pestic Sci, 1995).
Active and inactive are the calls of the source. The calls are words filed in the database; no cut-off is given here.

Experiments:
[1] = test system: Musca domestica; experiment: Insecticidal activity against WHO susceptible Musca domestica (house fly) assessed as compound level causing mortality per fly applied through topical application; assay type: functional
[2] = biological target: GABA-A receptor; anion channel (Rattus norvegicus) (UniProt O09028+P15431+P18506+P18508+P19969+P20236+P23574+P23576+P28471+P28473+P30191+P62813+P63079+P63138+Q91ZM7+Q9ES14); experiment: Competitive inhibition of [35S]TBPS binding to gamma-aminobutyric acid type-A receptor in Rattus norvegicus (rat) brain membranes at 50 nM incubated for 90 min by Scatchard plot; conditions: Membrane
[3] = biological target: GABA-A receptor; anion channel; experiment: Displacement of [35S]TBPS from gamma-aminobutyric acid type-A receptor in Rattus norvegicus (rat) brain membranes incubated for 90 min by liquid scintillation counting method; set-up: species or system Membrane

ClC1=C(Cl)[C@]2(Cl)[C@H]3[C@H]([C@@H]4C[C@H]3N=N4)[C@@]1(Cl)C2(Cl)Cl
LD50 [1]: 2.8 ng | inhibition [2]: Active | IC50 [3]: 0.0484 µM

[O-][N+]1=N[C@@H]2C[C@H]1[C@H]1[C@@H]2[C@@]2(Cl)C(Cl)=C(Cl)[C@]1(Cl)C2(Cl)Cl (relative stereo)
LD50 [1]: 3.1 ng | IC50 [3]: 0.119 µM

ClC1=C(Cl)[C@]2(Cl)[C@@H]3[C@@H]4CC[C@@H](C4)[C@@H]3[C@@]1(Cl)C2(Cl)Cl [REL-ALDRIN]
LD50 [1]: 18.5 ng | IC50 [3]: 0.0537 µM
